Data from publication PMC6151521, “Characterization of the Ornithine Hydroxylation Step in Albachelin Biosynthesis” (Molecules : A Journal of Synthetic Chemistry and Natural …, 2017).

System: T1, albachelin monooxygenase (AMO)
T1 construct: expressed in E. coli (pVP56K) as 8xHis-MBP fusion, tag removed with TEV protease; MW 49 kDa
Assay: oxygen consumption (Oxygraph)
Type: biochemical, Amycolatopsis alba
Conditions: holo-AMO, 100 mM sodium phosphate pH 7.5
Description: oxygen consumption (Oxygraph) on albachelin monooxygenase (AMO)

SMILES	Km (10 mM Orn) [µM]	Km (5 mM NADPH) [µM]
NC(=O)C1=CN([C@@H]2O[C@H](COP(=O)(O)OP(=O)(O)OC[C@H]3O[C@@H](n4cnc5c(N)ncnc54)[C@H](O)[C@@H]3O)[C@@H](O)[C@H]2O)C=CC1 [NADH]	320 ± 100	–
NC(=O)C1=CN([C@@H]2O[C@H](COP(=O)(O)OP(=O)(O)OC[C@H]3O[C@@H](n4cnc5c(N)ncnc54)[C@H](OP(=O)(O)O)[C@@H]3O)[C@@H](O)[C@H]2O)C=CC1 [NADPH]	1400 ± 160	–
NCCC[C@H](N)C(=O)O [Orn]	–	305 ± 108
